Experimental data taken from patent US5464820A, “Specific inhibitors of tissue kallikrein” (priority 1993, dated 1995).
Where two headings read alike, the source gives them in different places. Each block holds one compound with its values, some of them ahead of it. Starred links: 1 amine or outer side, 2 acyl side, 3 side chain; linkers in the order of their positions; H or OH if unused. Non-standard residues stand in square brackets, D forms with d. Residues, ends and D or L forms follow the SMILES beside them. X3 = O=C([C@H](N[*:1])C12CC3CC(CC(C3)C1)C2)[*:2]; Phe(4-NH2) = Nc1ccc(C[C@H](N)C(=O)O)cc1; 1Nal = N[C@@H](Cc1cccc2ccccc12)C(=O)O; X2 = CCC(CC)[C@@H](N[*:1])C(=O)[*:2]; Cha = N[C@@H](CC1CCCCC1)C(=O)O; Orn = NCCC[C@H](N)C(=O)O

Key:
[1] = biological target: porcine pancreatic kallikrein (PPK) (Sus scrofa, UniProt P00752); assay: Inhibition of porcine pancreatic kallikrein, cleavage of chromogenic substrate S-2266 (KI); assay type: biochemical
Chain of porcine pancreatic kallikrein (PPK) (P00752 8-87 limits assumed): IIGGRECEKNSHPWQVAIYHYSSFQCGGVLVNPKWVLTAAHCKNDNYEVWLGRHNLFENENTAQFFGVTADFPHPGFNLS
Chain of porcine pancreatic kallikrein (PPK) (P00752 95-246 limits assumed): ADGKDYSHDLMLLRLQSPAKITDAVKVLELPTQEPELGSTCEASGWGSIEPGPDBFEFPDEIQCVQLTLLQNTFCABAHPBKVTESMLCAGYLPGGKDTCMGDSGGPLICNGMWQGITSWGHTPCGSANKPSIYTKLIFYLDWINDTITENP

[2] = biological target: T1, human urinary kallikrein (HUK) (Homo sapiens, UniProt P06870); assay: Inhibition of human urinary (tissue) kallikrein (KI); assay type: biochemical
T1 construct: Human urinary kallikrein (HUK) was purified from human urine; from tissue
T1 sequence (P06870 25-262): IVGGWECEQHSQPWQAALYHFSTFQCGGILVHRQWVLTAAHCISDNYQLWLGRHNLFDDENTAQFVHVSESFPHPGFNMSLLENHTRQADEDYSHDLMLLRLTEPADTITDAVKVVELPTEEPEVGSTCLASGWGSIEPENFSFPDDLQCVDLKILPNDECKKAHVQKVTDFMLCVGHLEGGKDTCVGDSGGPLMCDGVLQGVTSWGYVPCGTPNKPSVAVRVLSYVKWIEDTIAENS
Description: Human urinary kallikrein (HUK) was purified from human urine. Briefly, urine was subjected to ultrafiltration to concentrate the protein components which were applied to approtinin-CH-Sepharose affinity columns. Active fractions from these columns were next applied to Sephadex G-100 gel filtration and collected as fractions. The pH of each fraction was determined immediately upon elution, and the fraction was neutralized by addition of 2.0 ml of 2M Tris-HCL buffer, pH 8.0. Porcine pancreatic 24-kallikrein (PPK), at 50 units/mg protein; 1.0 units hydrolyses 1.0 μM BAEE (benzoyl -L-arginine ethyl ester) to N-a-benzoyl-L-arginine/minute at pH 8.7 at 25° C., was purchased from Sigma Chemical Company (St. Louis, Mo.). […] All other enzymes were purchased from Sigma Chemical Company (St. Louis, Mo.).
Dixon plots were used for data reduction and for calculation of […].
(§1) Assay methods were based on the cleavage of chromogenic substrate S-2266 (D-Val-Leu-Arg-pNA) (Kabi; Charlotte, N.C.) by porcine pancreatic kallikrein (Sigma Chemical Company; St. Louis, Mo.) to yield an increase in absorbance at 405 nm. By changing the substrate and enzyme, the general method has been extended to measure the inhibition of human tissue kallikrein (HTK or human urinary kallikrein HUK), human plasma kallikrein (HPK), plasmin, and urokinase (UK). In all assays, the robot dilutes the inhibitor into a series of wells and adds substrate and buffer. Chromogenic reactions are started by the addition of enzyme. Changes in the absorbance at 405 nm in an array of wells were recorded. All manipulations were performed by the instrument from reservoirs containing substrate, inhibitor, diluent (water), buffer, or enzyme.

[3] = biological target: human plasma kallikrein (HPK) (Homo sapiens, UniProt P03952); assay: Inhibition of human plasma kallikrein (KI); assay type: biochemical
Chain of human plasma kallikrein (HPK) (P03952 20-638): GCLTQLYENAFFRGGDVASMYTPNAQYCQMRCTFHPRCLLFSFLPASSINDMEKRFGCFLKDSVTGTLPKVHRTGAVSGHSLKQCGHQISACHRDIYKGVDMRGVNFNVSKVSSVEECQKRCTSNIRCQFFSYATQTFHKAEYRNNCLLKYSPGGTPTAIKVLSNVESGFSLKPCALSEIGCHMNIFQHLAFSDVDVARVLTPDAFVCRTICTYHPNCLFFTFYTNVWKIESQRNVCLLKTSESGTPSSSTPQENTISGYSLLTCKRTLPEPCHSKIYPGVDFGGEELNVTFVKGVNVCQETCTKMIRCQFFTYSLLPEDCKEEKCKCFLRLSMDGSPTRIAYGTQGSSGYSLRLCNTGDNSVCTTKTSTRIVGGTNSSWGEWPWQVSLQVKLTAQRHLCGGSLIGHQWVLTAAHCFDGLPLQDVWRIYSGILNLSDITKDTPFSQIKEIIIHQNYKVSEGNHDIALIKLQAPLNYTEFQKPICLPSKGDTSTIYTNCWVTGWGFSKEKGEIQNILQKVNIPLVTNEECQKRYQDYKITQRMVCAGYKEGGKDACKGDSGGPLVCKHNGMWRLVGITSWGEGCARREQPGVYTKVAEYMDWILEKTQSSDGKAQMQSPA
Excerpt: as §1

urokinase (UK) = biological target: T2, urokinase (UK) (Homo sapiens, UniProt P00749); assay: Inhibition of urokinase (KI); assay type: biochemical; conditions: Table 7; read-out: K1 UK
T2 construct: purchased Sigma Chemical Company (St. Louis, Mo.)
Excerpt: as §1

[4] = Measured lipophilicity (KO/W); assay type: physicochemical; conditions: Table 2, measured lipophilicity, change relative to Gly analog
Excerpt: Listed in Table 2 are KI values along with changes in volume (ΔV), measured lipophilicity (ΔKO/W), and calculated lipophilicity (ΔCLOGP). Some of the substrates containing a D-amino acid residue at P3 are rapidly hydrolyzed by tissue kallikrein. To overcome this problem, a new method was also used to determine KI (see Example 6).

[5] = Table 4, Pro-X-Arg-Ser-Val-Gln, read-out: KI PPK
[6] = Table 4, Pro-X-Arg-Ser-Val-Gln, read-out: KI HUK
[7] = Table 4, Pro-X-Arg-Ser-Val-Gln, read-out: KI HPK
[8] = Table 7, in mM, read-out: K1 PPK
[9] = Table 7, in mM, read-out: K1 HPK

Ki [1, 5]: 0.13 mM
Ki [2, 6]: 41 µM
Ki [3, 7]: 0.516 mM
Compound: CC(C)[C@H](NC(=O)[C@H](CO)NC(=O)[C@H](CCCNC(=N)N)NC(=O)[C@H](Cc1cccc2ccccc12)NC(=O)[C@@H]1CCCN1)C(=O)N[C@@H](CCC(N)=O)C(N)=O [KCH-7] (H-P[1Nal]RSVQ-NH2)

Ki [1, 5]: 0.085 mM
Ki [2, 6]: 92 µM
Ki [3, 7]: 0.813 mM
Compound: CC(C)[C@H](NC(=O)[C@H](CO)NC(=O)[C@H](CCCNC(=N)N)NC(=O)[C@H](CC1CCCCC1)NC(=O)[C@@H]1CCCN1)C(=O)N[C@@H](CCC(N)=O)C(N)=O [KCH-10] (H-P[Cha]RSVQ-NH2)

Ki ([1]; Table 7, read-out: K1 PPK): 0.294 mM
Ki ([3]; Table 7, read-out: K1 HPK): 2.5 mM
Ki (urokinase (UK)): > 20 mM
Compound: CC(C)[C@H](NC(=O)[C@H](CO)NC(=O)[C@H](CCCCN)NC(=O)[C@H](Cc1ccccc1)NC(=O)[C@@H]1CCCN1)C(=O)N[C@@H](CCC(N)=O)C(N)=O [KIDZ-2, Pro-Phe-Lys-Ser-Val-Gln] (H-PFKSVQ-NH2)

Ki [1, 8]: > 5 mM
Ki [3, 9]: > 5 mM
Ki (urokinase (UK)): > 20 mM
Compound: CC(C)[C@H](NC(=O)[C@H](CO)NC(=O)[C@H](CCCN)NC(=O)[C@H](Cc1ccccc1)NC(=O)[C@@H]1CCCN1)C(=O)N[C@@H](CCC(N)=O)C(N)=O [KIDZ-3, Pro-Phe-Orn-Ser-Val-Gln] (H-PF[Orn]SVQ-NH2)

Ki ([1]; Table 7, read-out: K1 PPK): 0.036 mM
Ki ([1]; text b391, read-out: PPK KI): < 0.05 mM
Ki ([2]; Table 7, read-out: K1 HUK): 21 µM
Ki ([2]; text b391, read-out: HUK KI): < 50 µM
Ki [3, 9]: > 10 mM
Ki (urokinase (UK)): > 20 mM
Compound: CC(C)[C@H](NC(=O)[C@H](CO)NC(=O)[C@H](Cc1ccc(N)cc1)NC(=O)[C@H](Cc1ccccc1)NC(=O)[C@@H]1CCCN1)C(=O)N[C@@H](CCC(N)=O)C(N)=O [KIDZ-6, Pro-Phe-Aph-Ser-Val-Gla] (H-PF[Phe(4-NH2)]SVQ-NH2)

Ki [1, 8]: > 1 mM
Ki [3, 9]: > 20 mM
Ki (urokinase (UK)): > 20 mM
Compound: CC(C)[C@H](NC(=O)[C@H](CO)NC(=O)[C@H](Cc1c[nH]cn1)NC(=O)[C@H](Cc1ccccc1)NC(=O)[C@@H]1CCCN1)C(=O)N[C@@H](CCC(N)=O)C(N)=O [KIDZ-12, Pro-Phe-His-Ser-Val-Gln] (H-PFHSVQ-NH2)

Ki [1, 8]: > 4 mM
Ki [3, 9]: > 20 mM
Ki (urokinase (UK)): > 20 mM
Compound: CSCC[C@H](NC(=O)[C@H](Cc1ccccc1)NC(=O)[C@@H]1CCCN1)C(=O)N[C@@H](CO)C(=O)N[C@H](C(=O)N[C@@H](CCC(N)=O)C(N)=O)C(C)C [KIDZ-13, Pro-Phe-Met-Ser-Val-Gln] (H-PFMSVQ-NH2)

Ki ([1]; Table 7, read-out: K1 PPK): 0.4 to 0.8 mM
Ki (urokinase (UK)): > 20 mM
Compound: CC(C)[C@H](NC(=O)[C@H](CO)NC(=O)[C@H](CCCNC(=N)N)NC(=O)[C@@H](NC(=O)[C@@H]1CCCN1)[C@@H](C)O)C(=O)N[C@@H](CCC(N)=O)C(N)=O [KIDZ-14, Pro-Thr-Arg-Ser-Val-Gln] (H-PTRSVQ-NH2)

ΔLog KO/W [4]: 1.11
Compound: CCC(CC)[C@@H](N)C(=O)N[C@@H](Cc1ccccc1)C(=O)N[C@@H](CCCNC(=N)N)C(=O)N[C@@H](CO)C(=O)N[C@H](C(=O)N[C@@H](CCC(N)=O)C(N)=O)C(C)C [KKI-87, [D-Ile(4Me)]-Phe-Arg-Ser-Val-Gln] (H-[X2]FRSVQ-NH2; N-terminus assumed)

ΔLog KO/W [4]: 1.88
Compound: CC(C)[C@H](NC(=O)[C@H](CO)NC(=O)[C@H](CCCNC(=N)N)NC(=O)[C@H](Cc1ccccc1)NC(=O)[C@H](N)C12CC3CC(CC(C3)C1)C2)C(=O)N[C@@H](CCC(N)=O)C(N)=O [KKI-88, [D-Adg]-Phe-Arg-Ser-Val-Gln] (H-[X3]FRSVQ-NH2; N-terminus assumed)

Ki ([1]; Table 6, read-out: KI PPK): 0.06 mM
Ki ([2]; Table 6, first HUK column, read-out: KI HUK): 54 µM
Ki ([3]; Table 6, HUK, read-out: KI HUK): 0.49 mM
Compound: N=C(N)NCCC[C@H](NC(=O)[C@H](CO)NC(=O)[C@H](CO)NC(=O)[C@H](CCCNC(=N)N)NC(=O)[C@H](Cc1ccccc1)NC(=O)[C@@H]1CCCN1)C(N)=O [Pro-Phe-Arg-Ser-Ser-Arg] (H-PFRSSR-NH2)

Ki ([1]; Table 7, read-out: K1 PPK): 0.11 mM
Ki [3, 9]: > 20 mM
Ki (urokinase (UK)): > 20 mM
Compound: Pro-Map-Aph-Ser-Val-Gln [KIDZ-15]
selectivity for tissue kallikrein over plasma kallikrein or urokinase ([1]; Table 7): selectivity for tissue kallikrein over plasma kallikrein or urokinase
